Test results reported in PMC11292009, “Mapping protein binding sites by photoreactive fragment pharmacophores” (Communications Chemistry, 2024).

Experiments:
Assay type in all cases: binding
[1] = tested on: T1, STAT5B-NTD; assay: Intact MS photoaffinity labeling screen, STAT5B-NTD (365 nm, UHPLC-MS); settings: for MS labeling percentage, STAT5B: STAT5B-NTD, 365 nm 10 min, no photocatalyst; for STAT5B-NTD (experimental hit status): sheet PhP, experimental hit status flag given as 0 or 1;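 for MS labeling percentage, STAT5B: 0.17 µL of 100 mM DMSO fragment stock added to the protein sample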
T1 construct: His-SUMO (N, cleaved yes); made in house; host or cells: E. coli BL21 RILP
In short: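 Intact-protein labeling detected by UHPLC-MS in positive ion mode over m/z 100–2000. Samples were first photo-crosslinked at 365 nm for 10 min at 4 °C. Before irradiation, 7 µM STAT5B in PBS pH 7.4 was pre-incubated with probe for 1 h in the dark at room temperature.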

[2] = tested on: T2, KRas^G12D; assay: Intact MS photoaffinity labeling screen, KRas G12D (302 nm, LCMS-TOF); settings: for MS labeling percentage, KRas: KRas G12D, 302 nm 10 min; for KRAS-G12D (experimental hit status): sheet PhP, experimental hit status flag given as 0 or 1
T2 construct: purchased GSK/GenScript
In short: (§1)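 Labeling detected as mass additions in deconvoluted intact-protein LCMS-TOF spectra. Protein at 1 μM in PBS was first mixed with one fragment per well on ice for 15 min, followed by 10 min UV exposure at 302 nm.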

[3] = tested on: T3, BRD4-BD1; assay: Intact MS photoaffinity labeling screen, BRD4-BD1 (302 nm, LCMS-TOF); settings: for MS labeling percentage, BRD4: BRD4-BD1, 302 nm 10 min; for BRD4-BD1 (experimental hit status): sheet PhP, experimental hit status flag given as 0 or 1
T3 construct: screened the PhP library against the first bromodomain of BRD4 (BRD4-BD1); purchased GSK/GenScript
In short: as §1

[4] = tested on: myoglobin (Myo); assay: Intact protein MS photoaffinity labeling screen, myoglobin; settings: intact protein MS after 10 min irradiation
In short: (§2)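 Plate format, one fragment/well; 15 min incubation with protein for non-covalent complex formation; direct intact-protein MS read from plate; labeling % from adduct mass additions.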

[5] = tested on: T1, STAT5B-NTD; assay: Intact MS labeling screen, STAT5B-NTD conjugated with photocatalyst Ir-G2-PEG3-COOH (450 nm); settings: 450 nm 10 min;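 note: 0.14 µL of 100 mM DMSO fragment stock added to the conjugate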
In short: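 Ir-G2-PEG3-COOH photocatalyst (10 eq) activated 30 min with EDC/NHS/BOP, then conjugated to STAT5B-NTD (7 µM) overnight at RT or 1 h at 37 °C in dark. PhP added, 1 h dark, then 450 nm irradiation 10 min at 4 °C; labeling read by intact LC-MS, positive ion mode, m/z 100–2000.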

[6] = tested on: lysozyme (Lyo); assay: Intact protein MS photoaffinity labeling screen, lysozyme; settings: intact protein MS after 10 min irradiation
In short: as §2

[7] = tested on: carbonic anhydrase II (CA); assay: Intact protein MS photoaffinity labeling screen, carbonic anhydrase; settings: intact protein MS after 10 min irradiation
In short: as §2

| Compound | MS labeling percentage, STAT5B [1] [%] | STAT5B-NTD (experimental hit status) [1] | MS labeling percentage, KRas [2] [%] | KRAS-G12D (experimental hit status) [2] | MS labeling percentage, BRD4 [3] [%] | BRD4-BD1 (experimental hit status) [3] | MS labeling percentage, Myo [4] [%] | MS labeling percentage, STAT5B+photocat [5] [%] | MS labeling percentage, Lyo [6] [%] | MS labeling percentage, CA [7] [%] |
| --- | --- | --- | --- | --- | --- | --- | --- | --- | --- | --- |
| COc1ccc(OC)c(C(C)NC(=O)CCC2(C)N=N2)c1 (stereo not drawn) [PhP062, COc1ccc(OC)c(c1)C(C)NC(=O)CCC2(C)N=N2] | 2 | 0 | 63.2 | 0 | 7.9 | 0 | 1.1 | 1.9 | 1 | 2.3 |
| Cn1cnnc1CCNC(=O)CCC1(C)N=N1 [PhP063, Cn1cnnc1CCNC(=O)CCC2(C)N=N2] | 0 | 0 | 0.8 | 0 | 49.7 | 0 | 0.3 | 0.4 | 0 | 0.3 |
| CC1(CCC(=O)NC(CO)Cc2c[nH]c3ccccc23)N=N1 (stereo not drawn) [PhP064, N1=NC1(C)CCC(=O)NC(CO)Cc(c[nH]2)c(c23)cccc3] | 2.9 | 0 | 3.1 | 0 | 1.1 | 0 | 0.3 | 1.9 | 0.7 | 0.5 |
| CC1(CCC(=O)NCCCc2nc[nH]n2)N=N1 [PhP066, N1=NC1(C)CCC(=O)NCCCc2nc[nH]n2] | 0 | 0 | 0.2 | 0 | 0.3 | 0 | 0.3 | 0 | 0 | 0.3 |
| Cc1cc2ncn(CC(O)CNC(=O)CCC3(C)N=N3)c2cc1C (stereo not drawn) [PhP067, Cc(c1)c(C)cc(c12)n(cn2)CC(O)CNC(=O)CCC3(C)N=N3] | 2 | 0 | 0.6 | 0 | 0.8 | 0 | 0.5 | 0.3 | 0 | 0.2 |
| COc1nc(C)cc(C)c1CNC(=O)CCC1(C)N=N1 [PhP068, COc1nc(C)cc(C)c1CNC(=O)CCC2(C)N=N2] | 1 | 0 | 0 | 0 | 1 | 0 | 0.4 | 4.4 | 0 | 0.3 |
